Test results: the CheMixHub ionic liquid set

Assay: xn = mol fraction of the nth substance listed

[Cl][Al]([Cl])[Cl] + CCCC[n+]1ccn(C)c1.[Cl-]
Conditions	electrical conductivity [S/m]	viscosity [mPa·s]
270.1 K, 101.3 kPa, x2 = 0.5263	0.158	–
270.1 K, 101.3 kPa, x2 = 0.5556	0.0827	–
275.6 K, 101.3 kPa, x2 = 0.3333	0.36	–
275.6 K, 101.3 kPa, x2 = 0.3636	0.38	–
275.6 K, 101.3 kPa, x2 = 0.4	0.412	–
275.6 K, 101.3 kPa, x2 = 0.4348	0.408	–
276.1 K, 101.3 kPa, x2 = 0.4762	0.415	–
276.1 K, 101.3 kPa, x2 = 0.5	0.423	–
276.1 K, 101.3 kPa, x2 = 0.5556	0.135	–
281.1 K, 101.3 kPa, x2 = 0.5263	0.328	–
281.1 K, 101.3 kPa, x2 = 0.5556	0.189	–
284.65 K, 101.3 kPa, x2 = 0.3333	0.578	–
284.65 K, 101.3 kPa, x2 = 0.3636	0.588	–
284.65 K, 101.3 kPa, x2 = 0.4	0.582	–
284.65 K, 101.3 kPa, x2 = 0.4348	0.599	–
284.65 K, 101.3 kPa, x2 = 0.4762	0.608	–
284.65 K, 101.3 kPa, x2 = 0.5	0.616	–
293.65 K, 101.3 kPa, x2 = 0.3333	0.774	–
293.65 K, 101.3 kPa, x2 = 0.3636	0.803	–
295.65 K, 101.3 kPa, x2 = 0.4	0.855	–
295.65 K, 101.3 kPa, x2 = 0.4348	0.911	–
295.65 K, 101.3 kPa, x2 = 0.4762	0.883	–
295.65 K, 101.3 kPa, x2 = 0.5	0.916	–
296.65 K, 101.3 kPa, x2 = 0.5263	0.639	–
296.65 K, 101.3 kPa, x2 = 0.5556	0.417	–
298.15 K, 101 kPa, x1 = 0.545	0.98	28.92
303.15 K, 101 kPa, x1 = 0.5238	–	26.36
303.15 K, 101 kPa, x1 = 0.5653	–	22.62
303.15 K, 101 kPa, x1 = 0.6429	–	17.68
303.15 K, 101 kPa, x1 = 0.643	1.06	17.7
303.15 K, 101 kPa, x1 = 0.667	1.05	–
303.15 K, 101.3 kPa, x2 = 0.3333	1.02	–
304.15 K, 101.3 kPa, x2 = 0.3333	1.05	–
304.65 K, 101.3 kPa, x2 = 0.5263	0.868	–
304.65 K, 101.3 kPa, x2 = 0.5556	0.586	–
305.15 K, 101.3 kPa, x2 = 0.3333	1.07	–
305.15 K, 101.3 kPa, x2 = 0.4	1.14	–
305.15 K, 101.3 kPa, x2 = 0.5	1.25	–
306.15 K, 101.3 kPa, x2 = 0.3636	1.16	–
306.15 K, 101.3 kPa, x2 = 0.4348	1.22	–
308.15 K, 101 kPa, x1 = 0.615	1.23	16.72
315.15 K, 101.3 kPa, x2 = 0.4762	1.57	–
315.15 K, 101.3 kPa, x2 = 0.5263	1.2	–
315.15 K, 101.3 kPa, x2 = 0.5556	0.851	–
316.15 K, 101.3 kPa, x2 = 0.3333	1.41	–
316.15 K, 101.3 kPa, x2 = 0.4	1.5	–
316.15 K, 101.3 kPa, x2 = 0.5	1.68	–
318.15 K, 101 kPa, x1 = 0.667	1.5	11.35
318.15 K, 101.3 kPa, x2 = 0.3636	1.54	–
318.15 K, 101.3 kPa, x2 = 0.4348	1.69	–
322.15 K, 101.3 kPa, x2 = 0.3333	1.62	–
323.15 K, 101 kPa, x1 = 0.5	–	16.06
323.15 K, 101 kPa, x1 = 0.6296	–	11.12
324.15 K, 101.3 kPa, x2 = 0.5	1.98	–
324.15 K, 101.3 kPa, x2 = 0.5263	1.5	–
324.15 K, 101.3 kPa, x2 = 0.5556	1.09	–
325.15 K, 101.3 kPa, x2 = 0.4	1.87	–
326.15 K, 101.3 kPa, x2 = 0.3636	1.82	–
326.15 K, 101.3 kPa, x2 = 0.4348	1.95	–
328.15 K, 101 kPa, x1 = 0.643	1.88	9.76
331.15 K, 101.3 kPa, x2 = 0.4762	2.25	–
332.15 K, 101.3 kPa, x2 = 0.3333	2	–
333.15 K, 101 kPa, x1 = 0.5238	–	12.28
333.15 K, 101 kPa, x1 = 0.6001	–	9.9
333.15 K, 101 kPa, x1 = 0.615	2.16	9.5
333.15 K, 101 kPa, x1 = 0.6296	–	9.15
333.15 K, 101.3 kPa, x2 = 0.4	2.21	–
333.15 K, 101.3 kPa, x2 = 0.5	2.43	–
334.15 K, 101.3 kPa, x2 = 0.3636	2.15	–
334.15 K, 101.3 kPa, x2 = 0.4348	2.33	–
334.15 K, 101.3 kPa, x2 = 0.5263	1.94	–
334.15 K, 101.3 kPa, x2 = 0.5556	1.42	–
340.15 K, 101.3 kPa, x2 = 0.3333	2.29	–
340.15 K, 101.3 kPa, x2 = 0.4762	2.65	–
342.15 K, 101.3 kPa, x2 = 0.3636	2.45	–
342.65 K, 101.3 kPa, x2 = 0.4348	2.72	–
343.15 K, 101 kPa, x1 = 0.5834	–	8.63
343.15 K, 101.3 kPa, x2 = 0.4	2.62	–
343.65 K, 101.3 kPa, x2 = 0.5	2.92	–
344.15 K, 101.3 kPa, x2 = 0.5263	2.39	–
345.15 K, 101.3 kPa, x2 = 0.5556	1.81	–
347.15 K, 101.3 kPa, x2 = 0.3333	2.58	–
347.15 K, 101.3 kPa, x2 = 0.4762	3.04	–
350.15 K, 101.3 kPa, x2 = 0.3636	2.86	–
351.15 K, 101.3 kPa, x2 = 0.4348	3.15	–
351.65 K, 101.3 kPa, x2 = 0.4	3.02	–
351.65 K, 101.3 kPa, x2 = 0.5	3.33	–
352.15 K, 101.3 kPa, x2 = 0.5263	2.81	–
352.15 K, 101.3 kPa, x2 = 0.5556	2.12	–
358.15 K, 101.3 kPa, x2 = 0.3333	3	–
358.15 K, 101.3 kPa, x2 = 0.4762	3.59	–
360.15 K, 101.3 kPa, x2 = 0.3636	3.29	–
360.15 K, 101.3 kPa, x2 = 0.4348	3.59	–
361.15 K, 101.3 kPa, x2 = 0.4	3.46	–
361.15 K, 101.3 kPa, x2 = 0.5	3.86	–
361.65 K, 101.3 kPa, x2 = 0.5263	3.32	–
361.65 K, 101.3 kPa, x2 = 0.5556	2.56	–
367.15 K, 101.3 kPa, x2 = 0.3333	3.41	–
367.15 K, 101.3 kPa, x2 = 0.4762	4.14	–
370.15 K, 101.3 kPa, x2 = 0.3636	3.7	–
370.15 K, 101.3 kPa, x2 = 0.4348	4.08	–
370.15 K, 101.3 kPa, x2 = 0.5263	3.76	–
370.15 K, 101.3 kPa, x2 = 0.5556	2.97	–
371.15 K, 101.3 kPa, x2 = 0.4	3.96	–
371.15 K, 101.3 kPa, x2 = 0.5	4.49	–
379.15 K, 101.3 kPa, x2 = 0.3333	4.07	–
379.15 K, 101.3 kPa, x2 = 0.4762	4.87	–

Conditions	electrical conductivity [S/m]
306.15 K, 101 kPa, frequency 1 MHz, x2 = 0.625	0.227

CC(C)O + CCCC[n+]1ccn(C)c1.F[B-](F)(F)F
101 kPa, x2 = 0
Conditions	viscosity [mPa·s]
293.15 K	2.42
298.15 K	2.08
303.15 K	1.8
308.15 K	1.56
313.15 K	1.36
318.15 K	1.19
323.15 K	1.05

CCCC[n+]1ccn(C)c1.O=S(=O)([O-])C(F)(F)F + NCCO + O
viscosity [mPa·s], 101 kPa
Conditions	293.15 K	298.15 K	303.15 K	308.15 K	313.15 K	318.15 K	323.15 K	328.15 K	333.15 K
x2 = 0.1349, x3 = 0.8555	4.3	3.656	3.152	2.758	2.447	2.198	2.004	1.847	1.718
x2 = 0.1564, x3 = 0.8171	–	5.025	4.267	3.67	3.186	2.805	2.511	2.269	2.073
x2 = 0.2358, x3 = 0.6935	11.54	9.48	7.87	6.611	5.618	4.823	4.182	3.665	3.242
